Experimental data published in PMC5613062 (Investigational New Drugs, 2017).
“Also recorded” adds a separate entry of the source. Where two headings read alike, the source gives them in different places.

Tests used:
[1] = parameters: method as in earlier work; details: ref IB; cited from earlier work
[2] = tested on: breast cancer resistance protein (BCRP); parameters: method as in earlier work; details: ref IB; cited from earlier work
[3] = tested on: CYP2C9; parameters: method as in earlier work; details: weak direct inhibitor; ref IB; cited from earlier work
[4] = tested on: p-glycoprotein (PgP); parameters: method as in earlier work; details: ref IB; cited from earlier work
[5] = parameters: method as in earlier work; details: mouse; ref IB; cited from earlier work
[6] = Phase I safety/tolerability, DLT and MTD: selumetinib + erlotinib 100 mg orally QD in patients with advanced solid tumors
[7] = parameters: method as in earlier work; details: mice, at dose levels that do not induce maternal toxicity, preliminary; ref IB; cited from earlier work
[8] = tested on: Calu-6 human non-small cell lung cancer xenograft; parameters: method as in earlier work; details: AZD6244 3 mg/kg BD; AZD2171 […] QD; ref IB; cited from earlier work
[9] = parameters: method as in protocol D1532C00004; details: protocol rationale for QD dosing; ref protocol D1532C00004; cited from earlier work
[10] = parameters: method as in earlier work; details: rat; ref IB; cited from earlier work
[11] = tested on: CYP 2C8; parameters: method as in earlier work; details: at concentrations up to 50uM; ref IB; cited from earlier work
[12] = tested on: panel of other kinases; parameters: method as in earlier work; details: ref IB; cited from earlier work
[13] = cited from earlier work
[14] = tested on: CYP 2D6; parameters: method as in earlier work; details: at concentrations up to 50uM; ref IB; cited from earlier work
[15] = parameters: method as in earlier work; details: AZD6244-related material, rat and mouse; ref IB; cited from earlier work
[16] = Pharmacokinetics alone and in combination, selumetinib + erlotinib arm
Procedure: (§1) PK parameters were derived using non-compartmental analysis. Cmax and tmax were determined by visual inspection of the plasma concentration-time profiles. AUC(0–12) was calculated by the linear trapezoidal rule. Where more than one maximum occurred, the reported value was assigned to the first occurrence.

[17] = tested on: expressed CYP isoforms; parameters: method as in earlier work; details: ref IB; listed as AZD6244; cited from earlier work
[18] = parameters: method as in earlier work; details: monkey; ref IB; cited from earlier work
[19] = parameters: method as in earlier work; details: Minipig; ref IB; cited from earlier work
[20] = ref Study ARRY-0401, cited from earlier work
[21] = parameters: method as in earlier work; details: dog; ref IB; cited from earlier work
[22] = tested on: Lovo colorectal cancer xenograft; parameters: method as in earlier work; details: ref IB, cited from earlier work
[23] = tested on: CYP1A2; parameters: method as in earlier work; details: at concentrations up to 50uM; ref IB; cited from earlier work
[24] = parameters: method as in earlier work; details: human; ref IB; cited from earlier work
[25] = tested on: CYP 3A4; parameters: method as in earlier work; details: at concentrations up to 50uM; ref IB; cited from earlier work
[26] = parameters: method as in earlier work; details: mouse, rat and monkey; dosed as free-base or Hyd-Sulfate; ref IB; cited from earlier work
[27] = Pharmacokinetics alone and in combination, selumetinib + temsirolimus arm; format: in vivo, human; details: human, plasma, iv, geometric mean (% CV); for AUC(0-t): read-out: AUC(0–8); for AUC(0–12): read-out: AUC(0–12); for Cmax: read-out: Cmax
Procedure: as §1

[28] = parameters: method as in earlier work; details: predominantly via an aneugenic mode of action; ref IB; cited from earlier work
[29] = tested on: HCT-116 human colorectal cancer xenograft; parameters: method as in earlier work; details: AZD6244 25 m/kg BD; docetaxel 15 mg/kg once weekly; ref IB; cited from earlier work
[30] = dosed alone, selumetinib 50 mg cohort (N = 25), temsirolimus 25 mg IV
[31] = dosed alone, selumetinib 75 mg cohort (N = 6), temsirolimus 25 mg IV
[32] = dosed in combination, selumetinib 50 mg BID (N = 22) + temsirolimus 25 mg IV
[33] = dosed in combination, selumetinib 75 mg BID (N = 5) + temsirolimus 25 mg IV

In the case of `Cn1cnc2c(F)c(Nc3ccc(Br)cc3Cl)c(C(=O)NOCCO)cc21` [Selumetinib], the “mutagenic or clastogenic potential in vitro” value [1] is given as “no evidence of mutagenic or clastogenic potential”, the “interaction with breast cancer resistance protein (BCRP)” value [2] is given as “substrate but not an inhibitor” and the IC50 [3] is given as 44.7 µM. The “interaction with p-glycoprotein (PgP)” value [4] was “substrate but not an inhibitor”, the Protein binding [5] was 98.9% and the “protocol-defined MTD of selumetinib plus erlotinib (part A)” value ([6]; part A dose escalation, later not tolerated in part B) was 50 mg BID. The “selumetinib dose recommended for future phase II studies” value ([6]; plus erlotinib 100 mg QD) was 100 mg QD, the “MTD of selumetinib in combination with erlotinib” value ([6]; with erlotinib 100 mg QD) was 100 mg QD and the reproductive toxicology [7] was “adverse effects on embryofetal development and survival”. The “Tumor growth inhibition as a % of control” value [8] was 48.8 % of control, the half-life [9] was ~ 6 hours and the Protein binding [10] was 99.7%. For the same compound, the “inhibition of CYP2C8” value [11] was “no inhibition”, the “activity against a panel of other kinases” value [12] was “inactive, or only minimally active” and the “maximum tolerated dose (MTD), monotherapy” value ([13]; first-in-human trial of selumetinib monotherapy) was 75 mg BID. The “recommended phase II monotherapy dose” value ([13]; in vivo) was 75 mg BID, the “inhibition of CYP2D6” value [14] was “no inhibition” and the binding to melanin [15] was “no evidence of binding to melanin”. The “penetration into the CNS” value [15] was “minimal”, the Cmax ([16]; geometric mean (% CV), dosed alone, selumetinib 50 mg cohort (N = 14), erlotinib 100 mg QD) was 926.5 (69.10) ng/mL and the Cmax ([16]; geometric mean (% CV), dosed in combination, selumetinib 50 mg BID (N = 12) + erlotinib 100 mg QD) was 1334 (51.16) ng/mL. For the same compound, the Cmax ([16]; geometric mean, QD cohorts, in combination, selumetinib 50 mg (N = 6) + erlotinib 100 mg QD) was 942 ng/mL, the tmax ([16]; human, plasma, oral) was 1.25 h and the AUC(0-t) ([16]; human, plasma, oral, 100 mg, AUC(0–8), geometric mean, QD cohorts, dosed alone, selumetinib 100 mg cohort (N = 6), erlotinib 100 mg QD) was 4400 ng·h/mL. It also gave an AUC(0-t) ([16]; human, plasma, oral, 100 mg, AUC(0–12), geometric mean, QD cohorts, dosed alone, selumetinib 100 mg cohort (N = 6), erlotinib 100 mg QD) of 5000 ng·h/mL, a Cmax ([16]; human, plasma, oral, 100 mg, Cmax, geometric mean, QD cohorts, dosed alone, selumetinib 100 mg cohort (N = 6), erlotinib 100 mg QD) of 1800 ng/mL and an AUC(0-t) ([16]; human, plasma, oral, AUC(0–8), geometric mean (% CV), dosed alone, selumetinib 50 mg cohort (N = 14), erlotinib 100 mg QD) of 2280 ng·h/mL. The AUC(0-t) ([16]; human, plasma, oral, AUC(0–8), geometric mean (% CV), dosed alone, selumetinib 75 mg cohort (N = 6), erlotinib 100 mg QD) was 2860 ng·h/mL, the AUC(0-t) ([16]; human, plasma, oral, AUC(0–8), geometric mean (% CV), dosed in combination, selumetinib 50 mg BID (N = 12) + erlotinib 100 mg QD) was 3640 ng·h/mL and the AUC(0-t) ([16]; human, plasma, oral, AUC(0–8), geometric mean (% CV), dosed in combination, selumetinib 75 mg BID (N = 6) + erlotinib 100 mg QD) was 4350 ng·h/mL. For the same compound, the AUC(0-t) ([16]; human, plasma, oral, AUC(0–8), geometric mean, QD cohorts, dosed alone, selumetinib 50 mg cohort (N = 7), erlotinib 100 mg QD) was 1900 ng·h/mL, the AUC(0-t) ([16]; human, plasma, oral, AUC(0–8), geometric mean, QD cohorts, dosed alone, selumetinib 150 mg cohort (N = 13), erlotinib 100 mg QD) was 6780 ng·h/mL and the AUC(0-t) ([16]; human, plasma, oral, AUC(0–8), geometric mean, QD cohorts, in combination, selumetinib 50 mg (N = 6) + erlotinib 100 mg QD) was 2600 ng·h/mL. It also gave an AUC(0-t) ([16]; human, plasma, oral, AUC(0–8), geometric mean, QD cohorts, in combination, selumetinib 100 mg (N = 6) + erlotinib 100 mg QD) of 7070 ng·h/mL, an AUC(0-t) ([16]; human, plasma, oral, AUC(0–8), geometric mean, QD cohorts, in combination, selumetinib 150 mg (N = 12) + erlotinib 100 mg QD) of 9190 ng·h/mL and an AUC(0-t) ([16]; human, plasma, oral, AUC(0–12), geometric mean (% CV), dosed alone, selumetinib 50 mg cohort (N = 14), erlotinib 100 mg QD) of 2700 ng·h/mL. The AUC(0-t) ([16]; human, plasma, oral, AUC(0–12), geometric mean (% CV), dosed alone, selumetinib 75 mg cohort (N = 6), erlotinib 100 mg QD) was 3200 ng·h/mL, the AUC(0-t) ([16]; human, plasma, oral, AUC(0–12), geometric mean (% CV), dosed in combination, selumetinib 50 mg BID (N = 12) + erlotinib 100 mg QD) was 4010 ng·h/mL and the AUC(0-t) ([16]; human, plasma, oral, AUC(0–12), geometric mean (% CV), dosed in combination, selumetinib 75 mg BID (N = 6) + erlotinib 100 mg QD) was 4830 ng·h/mL. For the same compound, the AUC(0-t) ([16]; human, plasma, oral, AUC(0–12), geometric mean, QD cohorts, dosed alone, selumetinib 50 mg cohort (N = 7), erlotinib 100 mg QD) was 2130 ng·h/mL, the AUC(0-t) ([16]; human, plasma, oral, AUC(0–12), geometric mean, QD cohorts, dosed alone, selumetinib 150 mg cohort (N = 13), erlotinib 100 mg QD) was 7740 ng·h/mL and the AUC(0-t) ([16]; human, plasma, oral, AUC(0–12), geometric mean, QD cohorts, in combination, selumetinib 100 mg (N = 6) + erlotinib 100 mg QD) was 7760 ng·h/mL. It also gave an AUC(0-t) ([16]; human, plasma, oral, AUC(0–12), geometric mean, QD cohorts, in combination, selumetinib 150 mg (N = 12) + erlotinib 100 mg QD) of 10500 ng·h/mL, a Cmax ([16]; human, plasma, oral, Cmax, geometric mean (% CV), dosed alone, selumetinib 75 mg cohort (N = 6), erlotinib 100 mg QD) of 1050 ng/mL and a Cmax ([16]; human, plasma, oral, Cmax, geometric mean (% CV), dosed in combination, selumetinib 75 mg BID (N = 6) + erlotinib 100 mg QD) of 1660 ng/mL. For the same compound, the Cmax ([16]; human, plasma, oral, Cmax, geometric mean, QD cohorts, dosed alone, selumetinib 50 mg cohort (N = 7), erlotinib 100 mg QD) was 683 ng/mL, the Cmax ([16]; human, plasma, oral, Cmax, geometric mean, QD cohorts, dosed alone, selumetinib 150 mg cohort (N = 13), erlotinib 100 mg QD) was 2450 ng/mL and the Cmax ([16]; human, plasma, oral, Cmax, geometric mean, QD cohorts, in combination, selumetinib 100 mg (N = 6) + erlotinib 100 mg QD) was 2600 ng/mL. For the same compound, the Cmax ([16]; human, plasma, oral, Cmax, geometric mean, QD cohorts, in combination, selumetinib 150 mg (N = 12) + erlotinib 100 mg QD) was 2810 ng/mL, the “CYP isoforms metabolizing AZD6244” value [17] was “metabolized by CYP1A2; also recorded: also metabolized by CYP 2C19 and CYP 3A4” and the Protein binding [18] was 97.7%. The Protein binding [19] was 93.7%, the “time at which Cmax attained (median)” value ([20]; post-dose) was “approximately 1 hour” and the “half-life (t½), median” value ([20]; terminal elimination phase) was “approximately 11 hours”. The Protein binding [21] was 94.6%, the “Tumor growth inhibition as a % of control” value ([22]; AZD6244 25 mg/kg BD, Iressa 75 mg/kg QD) was 40.2 % of control and the “Tumor growth inhibition as a % of control” value ([22]; rapamycin experiment, usual monotherapy schedules, doses not given) was 39 % of control. The “inhibition of CYP1A2” value [23] was “no inhibition”, the Protein binding [24] was 98.4% and the “inhibition of CYP3A4” value [25] was “no inhibition”. The “accumulation on multiple dosing” value [26] was “no/minimal accumulation”, the AUC(0-t) [27, 30] was 1840 ng·h/mL and the AUC(0–12) [27, 30] was 2150 ng·h/mL. It also gave a Cmax [27, 30] of 666 ng/mL, an AUC(0-t) [27, 31] of 2990 ng·h/mL and an AUC(0–12) [27, 31] of 3370 ng·h/mL. For the same compound, the Cmax [27, 31] was 1240 ng/mL, the AUC(0-t) [27, 32] was 1840 ng·h/mL and the AUC(0–12) [27, 32] was 2130 ng·h/mL. It also gave a Cmax [27, 32] of 676 ng/mL, an AUC(0-t) [27, 33] of 2520 ng·h/mL and an AUC(0–12) [27, 33] of 2940 ng·h/mL. The Cmax [27, 33] was 887 ng/mL, the mouse micronucleus result [28] was “increase in micronucleated immature erythrocytes (MIE)” and the “Tumor growth inhibition as a % of control” value [29] was 64.9 % of control.
